Reference: PubChem BioAssay AID2253 (Southern Research Specialized Biocontainment Screening …, 2010)

tested on: THP-1 viability, CellTiter-Glo luminescence, 72 h; test: THP-1 cell cytotoxicity, dose response, cytotoxicity control for Salmonella PhoP regulon inhibitors, S. typhimurium screen hits (AID 2253)

**Q.** With `Oc1ccc(Br)cc1-c1nc2cnccn2c1NC1CCCCC1` as the compound, how does the EC50 read?
**A.** 46.4 µM

**Q.** With `COc1ccc(-c2cn[nH]c2-c2ccc(OCc3ccc([N+](=O)[O-])cc3)cc2O)cc1` as the compound, how does the EC50 read?
**A.** 15.1 µM

**Q.** Which EC50 does the source give for `Cc1ccc(C)c(-c2nc3ccc(N)cc3[nH]2)c1` here?
**A.** 10.5 µM

**Q.** For `O=C(/C=C/c1ccco1)NC(=S)Nc1ccc(N2CCCC2)cc1`, which EC50 is on record?
**A.** 9.59 µM

**Q.** `COC(=O)c1c(NC(=O)c2ccc([N+](=O)[O-])o2)sc2c1CCN(C(C)C)C2` was tested. Which EC50 did it give?
**A.** 1.2 µM

**Q.** Which EC50 does the source give for `Cc1ccc(O)c(-c2cc(-c3ccccc3C)[nH]n2)c1` here?
**A.** 19.9 µM

**Q.** With `CC(CO)(CO)NCc1ccc(-c2ccccc2)cc1` as the compound, how does the EC50 read?
**A.** 15 µM

**Q.** Which EC50 does the source give for `O=C(N/N=C/c1cc2c3c(c1O)CCCN3CCC2)c1ccccc1O` here?
**A.** 3.56 µM

**Q.** How did the EC50 turn out when `CCCCNCCCOc1cccc(Cl)c1Cl` was run?
**A.** 29.2 µM

**Q.** `Cc1cccc(Nc2cc(C)c3c(O)cccc3n2)c1C` was tested. Which EC50 did it give?
**A.** 8.98 µM

**Q.** With `Cc1ccc(-c2cc(-c3ccc(Cl)cc3)c(C#N)c(N)n2)o1` as the compound, how does the EC50 read?
**A.** 26.2 µM

**Q.** With `CCOc1cc(/C=C2/NC(=O)N(CC(=O)Nc3cccc(C)c3)C2=O)ccc1OC` as the compound, how does the EC50 read?
**A.** 30.8 µM

**Q.** For `Cc1ccc(C)c(/C=C/C(=O)c2ccccc(=O)c2O)c1`, which EC50 is on record?
**A.** 9.58 µM

**Q.** Which EC50 does the source give for `Oc1c(C(Nc2ccccn2)c2ccccn2)ccc2cccnc12` (stereo unspecified) here?
**A.** 4.23 µM

**Q.** `CCOc1ccc(/C=C/C(=O)Nc2ccc(OC)cc2[N+](=O)[O-])cc1` was tested. Which EC50 did it give?
**A.** 27.5 µM

**Q.** With `O=C(NCc1ccco1)c1cccc(Nc2nc3ccc(Br)cc3[nH]2)c1` as the compound, how does the EC50 read?
**A.** 44.6 µM

**Q.** `Cc1cc(C(C)(C)CC(C)(C)C)ccc1OCCOCC[N+](C)(C)Cc1ccccc1` was tested. Which EC50 did it give?
**A.** 1.61 µM

**Q.** How did the EC50 turn out when `Cc1cc(/C=N/NC(N)=S)c(C)n1-c1ccc(Cl)c(Cl)c1` was run?
**A.** 19.8 µM

**Q.** How did the EC50 turn out when `CCOc1ccccc1NS(=O)(=O)c1ccc(Br)s1` was run?
**A.** 40.5 µM

**Q.** How did the EC50 turn out when `NC1=NC(=Nc2cccc(Cl)c2)c2ccccc21` was run?
**A.** 32.4 µM

**Q.** With `CC(O)CNCCNCc1c(OCc2ccccc2)ccc2ccccc12` (stereo unspecified) as the compound, how does the EC50 read?
**A.** 14.2 µM

**Q.** How did the EC50 turn out when `CCc1ccc(Nc2nc(N)nc(CSc3nc4ccccc4s3)n2)cc1` was run?
**A.** 33.8 µM

**Q.** With `O=[N+]([O-])c1ccc(-n2nnnc2-c2ccccc2)c([N+](=O)[O-])c1` as the compound, how does the EC50 read?
**A.** 10.1 µM

**Q.** For `CCCc1cnc(NCCNCC(O)COc2ccc(Cl)c(Cl)c2)nc1` (stereo unspecified), which EC50 is on record?
**A.** 11.8 µM

**Q.** How did the EC50 turn out when `COc1ccc(C(=O)Oc2c(CN3CCOCC3)cc(Cl)c3cccnc23)cc1` was run?
**A.** 6.67 µM

**Q.** How did the EC50 turn out when `COc1ccc(C(C[N+](=O)[O-])c2c(-c3ccccc3)cc3ccccn23)cc1` (stereo unspecified) was run?
**A.** 12.8 µM

**Q.** With `CC(=O)NC(c1cccs1)c1cc([N+](=O)[O-])c2cccnc2c1O` (stereo unspecified) as the compound, how does the EC50 read?
**A.** 10.1 µM

**Q.** With `COc1ccccc1/C=C1\CCCC2=C1Nc1nnnn1C2c1ccccc1OC` (stereo unspecified) as the compound, how does the EC50 read?
**A.** 19.6 µM

**Q.** With `O=S(=O)(Nc1ccc2ccccc2c1)c1ccccc1` as the compound, how does the EC50 read?
**A.** 47.2 µM

**Q.** How did the EC50 turn out when `Oc1ccc(N2CCN(Cc3ccc(OCCCN4CCCCC4)cc3)CC2)cc1` was run?
**A.** 29.5 µM

**Q.** For `CC1=NN(c2ccc(Cl)cc2)C(=O)C1C(c1cccc(O)c1)c1c(C)[nH]n(-c2ccc(Cl)cc2)c1=O` (stereo unspecified), which EC50 is on record?
**A.** 35.5 µM

**Q.** How did the EC50 turn out when `Cc1sc2ncnc(N/N=C/c3ccccc3O)c2c1C` was run?
**A.** 0.51 µM

**Q.** With `CN(C)c1ccc(O)c2c1CC1CC3C(N(C)C)C(=O)C(C(N)=O)=C(O)[C@@]3(O)C(=O)C1=C2O` (stereo partly specified) as the compound, how does the EC50 read?
**A.** 36.6 µM

**Q.** `CCN(CC)c1ccc(/C=N/NC(=S)NCc2ccccc2)c(O)c1` was tested. Which EC50 did it give?
**A.** 7.54 µM

**Q.** With `CCC(C)(C)c1ccc(OCCCC[n+]2ccccc2)c(C(C)(C)CC)c1` as the compound, how does the EC50 read?
**A.** 1.2 µM

**Q.** For `CCCCCc1ccc(OCCOCCn2c[n+](C)c3ccccc32)c(CCCCC)c1`, which EC50 is on record?
**A.** 1.35 µM

**Q.** Which EC50 does the source give for `O=C(Cc1c[nH]c2ccccc12)N/N=C/c1ccccc1O` here?
**A.** 16.2 µM

**Q.** `CCN(CC)c1ccc(/C=N/Nc2nc3ccccc3[nH]2)c(O)c1` was tested. Which EC50 did it give?
**A.** 2.7 µM

**Q.** For `O=C(O)CSc1cc(NS(=O)(=O)c2cccc([N+](=O)[O-])c2)c2ccccc2c1O`, which EC50 is on record?
**A.** 8.07 µM

**Q.** Which EC50 does the source give for `O=c1c(Br)c(Br)cnn1-c1ccccc1` here?
**A.** 1.27 µM

**Q.** With `Cc1ccc(C(C)C)c(OCC(=O)N2CCN(Cc3nc4cc([N+](=O)[O-])ccc4n3C)CC2)c1` as the compound, how does the EC50 read?
**A.** 25.9 µM

**Q.** Which EC50 does the source give for `COc1ccc(C(=O)N/N=C/c2sc3ccccc3c2O)cc1` here?
**A.** 3.13 µM

**Q.** How did the EC50 turn out when `Cc1cccc(NC(=S)NC(NC(=O)c2ccco2)C(Cl)(Cl)Cl)c1` (stereo unspecified) was run?
**A.** 21.7 µM

**Q.** With `O=C(NCCNc1ccc([N+](=O)[O-])cc1C(F)(F)F)c1ccc(F)cc1` as the compound, how does the EC50 read?
**A.** 43.7 µM

**Q.** With `O=C(c1cccs1)c1no[n+]([O-])c1C(=O)c1cccs1` as the compound, how does the EC50 read?
**A.** 2.61 µM

**Q.** `COc1ccc(C)cc1C(=O)CCC(=O)Nc1ccccc1N1CCOCC1` was tested. Which EC50 did it give?
**A.** 8.33 µM

**Q.** `CN1CCN(C(c2ccc(Cl)cc2)c2cc(Cl)c3cccnc3c2O)CC1` (stereo unspecified) was tested. Which EC50 did it give?
**A.** 1.66 µM

**Q.** How did the EC50 turn out when `C=CCN(C(=O)c1cccc(S(=O)(=O)N2CCN(C)CC2)c1)c1nc(-c2ccccc2)cs1` was run?
**A.** 49.4 µM

**Q.** How did the EC50 turn out when `O=S1(=O)N=C(N/N=C/c2ccccn2)c2ccccc21` was run?
**A.** 22.9 µM

**Q.** `O=C(C[n+]1cc(-c2ccc(Cl)cc2)n2c1CCC2)Nc1nc(-c2ccccc2)cs1` was tested. Which EC50 did it give?
**A.** 43.3 µM

**Q.** Which EC50 does the source give for `O=C(Cc1ccccc1)Nc1cccc(N2C(=O)C=CC2=O)c1` here?
**A.** 16.1 µM

**Q.** Which EC50 does the source give for `CCOc1ccc(Nc2nc(N)c3ccccc3n2)cc1` here?
**A.** 7.05 µM

**Q.** `O=C(c1[nH]ncc1-c1ccc(Cl)cc1)C1CO1` (stereo unspecified) was tested. Which EC50 did it give?
**A.** 13.3 µM

**Q.** For `O=C(CSc1ccccn1)N/N=C/c1cc([N+](=O)[O-])ccc1O`, which EC50 is on record?
**A.** 17.1 µM

**Q.** Which EC50 does the source give for `Oc1ccc(CNc2ccccc2F)c2cccnc12` here?
**A.** 4.93 µM

**Q.** With `O=C1OC(/C(=C\Nc2ccc(F)cc2F)[N+](=O)[O-])c2ccccc21` (stereo unspecified) as the compound, how does the EC50 read?
**A.** 31.7 µM

**Q.** With `Oc1ccc(/C=N/Nc2nccnc2Cl)c(O)c1` as the compound, how does the EC50 read?
**A.** 1.39 µM

**Q.** Which EC50 does the source give for `Cc1cc(C)n(-c2nc(NCCN(C)C)c3c4c(sc3n2)CCCC4)n1` here?
**A.** 4.63 µM

**Q.** `CCn1c(C)cc(=S)c2ccccc21` was tested. Which EC50 did it give?
**A.** 48.2 µM

**Q.** How did the EC50 turn out when `CNC[C@H](CC1CCCCC1)NC[C@H](Cc1ccccc1)NCCC12CC3CC(CC(C3)C1)C2` was run?
**A.** 3.28 µM

**Q.** For `C[C@H]1O[C@@H](n2cc(F)c(=O)[nH]c2=O)[C@H](O)[C@@H]1O`, which EC50 is on record?
**A.** 43.8 µM

**Q.** How did the EC50 turn out when `COC(=O)c1c(C)oc2ccc(NS(=O)(=O)c3cccs3)cc12` was run?
**A.** 48.4 µM

**Q.** For `O=C(NC(c1ccc(Cl)cc1)c1c(O)ccc2ccccc12)c1ccccc1` (stereo unspecified), which EC50 is on record?
**A.** 8.91 µM

**Q.** With `COc1ccc(Nc2ccc3c(c2)=NC2(CCCCC2)[N+]=3[O-])cc1` as the compound, how does the EC50 read?
**A.** 4.59 µM

**Q.** `c1ccc2cc(CSCc3nc4ccccc4[nH]3)ccc2c1` was tested. Which EC50 did it give?
**A.** 42.6 µM

**Q.** With `O=C1C=C(N2CCOCC2)c2ccccc2C1=O` as the compound, how does the EC50 read?
**A.** 6.88 µM

**Q.** How did the EC50 turn out when `COc1cccc(Cn2cnc3c(NS(=O)(=O)c4cccc(Cl)c4Cl)c(C)c(C)cc32)c1` was run?
**A.** 40.4 µM

**Q.** How did the EC50 turn out when `COc1ccc(Nc2cc(C)nc(NCc3ccccc3)n2)cc1` was run?
**A.** 10.1 µM

**Q.** With `Cc1ccc(Cn2c(=N)n(CC(=O)c3ccc([N+](=O)[O-])cc3)c3ccccc32)cc1` as the compound, how does the EC50 read?
**A.** 8.18 µM

**Q.** With `CN(C)c1ccc(O)c2c1CC1CC3[C@@H](N(C)C)C(=O)C(C(N)=O)=C(O)[C@]3(O)C(=O)C1=C2O` (stereo partly specified) as the compound, how does the EC50 read?
**A.** 37 µM

**Q.** Which EC50 does the source give for `CCCCCCCCCn1c2c(c(=N)c3c1CCC3)CCCC2` here?
**A.** 0.37 µM

**Q.** `CCc1ccc(-c2nn(-c3ccccc3)cc2CSC(=N)N)cc1` was tested. Which EC50 did it give?
**A.** 6.52 µM

**Q.** How did the EC50 turn out when `c1csc(C2Nc3cccc4cccc(c34)N2)c1` was run?
**A.** 48.8 µM

**Q.** For `c1ccc(CNc2nc(N3CCN(Cc4ccccc4)CC3)nc3ccccc23)cc1`, which EC50 is on record?
**A.** 21.6 µM

**Q.** `N#CC(C#N)=c1ccc2c(c1)NC1(CCCCC1)N=2` was tested. Which EC50 did it give?
**A.** 4.08 µM

**Q.** How did the EC50 turn out when `O=C(NCCCc1ccccc1)Nc1cccc(Cl)c1` was run?
**A.** 37 µM

**Q.** With `O=[N+]([O-])c1cc(/C=N/Nc2nc3ccccc3[nH]2)c(O)cc1O` as the compound, how does the EC50 read?
**A.** 1.21 µM

**Q.** Which EC50 does the source give for `CC(C)[C@@H]1CC[C@@H](C)C[C@H]1OC(=O)C[n+]1cc(-c2ccc(Cl)cc2)n2c1CCCCC2` here?
**A.** 2.3 µM

**Q.** How did the EC50 turn out when `C#CCOCCOCCOCCNc1nc(N2CCN(C(=O)CCCCCCCCCCNC(=O)[C@H](CCCCN)n3cc(C[C@@H](C)CC)nn3)CC2)nc(N2CCN(C(=O)CCCCCCCCCCNC(=O)[C@H](CCCN=C(N)N)n3cc(C[C@@H](C)CC)nn3)CC2)n1` was run?
**A.** 3.88 µM

**Q.** Which EC50 does the source give for `CC(C)CCNC(=S)Nc1ccc([N+](=O)[O-])cc1` here?
**A.** 16.5 µM

**Q.** For `Oc1c(CN2CCc3ccccc3C2)cc(Cl)c2cccnc12`, which EC50 is on record?
**A.** 8.71 µM
